{"source": "patent US11638713B2", "about": "“Patentiflorin A analogs as antiviral agents” (priority 2019, dated 2023)", "key": {"HIV": {"system": "HIV", "assay": "microbe, parasite or virus in culture", "format": "cell-based", "details": "for EC50: Human immunodeficiency virus 1, A549"}, "SARS-CoV-2": {"system": "SARS-CoV-2", "assay": "microbe, parasite or virus in culture", "format": "cell-based", "details": "Severe acute respiratory syndrome coronavirus 2, HepG2, read-out: EC50 against SARS-CoV-2"}, "in vitro": {"assay": "in vitro", "details": "human"}, "SF162": {"system": "SF162", "assay": "HIV-1 clinical strain PBMC assay (p24 ELISA), SF162", "format": "cell-based", "details": "Human immunodeficiency virus 1, PBMC, read-out: IC50 against SF162"}, "89.6": {"system": "89.6", "assay": "HIV-1 clinical strain PBMC assay (p24 ELISA), 89.6", "format": "cell-based", "details": "Human immunodeficiency virus 1, PBMC, read-out: IC50 against 89.6"}, "Bal": {"system": "Bal", "assay": "HIV-1 clinical strain PBMC assay (p24 ELISA), Bal", "format": "cell-based", "details": "Human immunodeficiency virus 1, BAL, read-out: IC50 against Bal"}, "Lav.04": {"system": "Lav.04", "assay": "HIV-1 clinical strain PBMC assay (p24 ELISA), Lav.04", "format": "cell-based", "details": "Human immunodeficiency virus 1, PBMC, read-out: IC50 against Lav.04"}, "1617-1": {"system": "1617-1", "assay": "HIV-1 resistant strain PBMC assay (p24 ELISA), 1617-1 (AZT resistant)", "format": "cell-based", "details": "Human immunodeficiency virus 1, PBMC, read-out: IC50 against 1617-1"}, "N119": {"system": "N119", "assay": "HIV-1 resistant strain PBMC assay (p24 ELISA), N119 (nevaripine resistant)", "format": "cell-based", "details": "Human immunodeficiency virus 1, PBMC, read-out: IC50 against N119"}, "[1]": {"assay": "Cytotoxicity against PBMC", "format": "cell-based", "details": "human"}, "[2]": {"assay": "Repeated-dose toxicity study in mice", "details": "25 and 50 mg/kg, daily i.p. for 28 days"}, "H5N1 virus": {"system": "H5N1 virus", "assay": "microbe, parasite or virus in culture", "format": "cell-based, H5N1 influenza virus", "details": "Influenza A virus, H5N1, A549, read-out: EC50 against H5N1 virus"}, "EBOV (Ebola virus)": {"system": "EBOV (Ebola virus)", "assay": "microbe, parasite or virus in culture", "format": "cell-based", "details": "Zaire ebolavirus, A549, read-out: EC50 against EBOV"}, "[3]": {"system": "VSV (vesicular stomatitis virus)", "assay": "microbe, parasite or virus in culture", "format": "cell-based", "details": "A549, read-out: EC50 against VSV"}}}
{"smiles": "COc1cc2c(O)c3c(c(-c4ccc5c(c4)OCO5)c2cc1OC)C(=O)OC3", "note": "[Compound 5, diphyllin]", "values": [{"measurement": "EC50", "setting": "HIV", "value": 37.1, "unit": "nM"}, {"measurement": "EC50", "setting": "SARS-CoV-2", "value": 150, "unit": "nM"}, {"measurement": "CC50", "setting": "in vitro; CC50 (nM)", "value": 3610, "unit": "nM"}]}
{"smiles": "CCOC(=O)COc1c2c(c(-c3ccc4c(c3)OCO4)c3cc(OC)c(OC)cc13)C(=O)OC2", "note": "[Compound 12b]", "values": [{"measurement": "EC50", "setting": "HIV", "value": 207, "unit": "nM"}, {"measurement": "IC50", "setting": "SF162", "value": 340, "unit": "nM"}, {"measurement": "IC50", "setting": "89.6", "value": 376, "unit": "nM"}, {"measurement": "IC50", "setting": "Bal", "value": 458, "unit": "nM"}, {"measurement": "IC50", "setting": "Lav.04", "value": 312, "unit": "nM"}, {"measurement": "IC50", "setting": "1617-1", "value": 537, "unit": "nM"}, {"measurement": "IC50", "setting": "N119", "value": 638, "unit": "nM"}, {"measurement": "CC50", "setting": "[1]", "value": "> 100000", "unit": "nM"}, {"measurement": "CC50", "setting": "in vitro; CC50 (nM)", "value": "> 26800", "unit": "nM"}]}
{"smiles": "COc1cc2c(OCC#N)c3c(c(-c4ccc5c(c4)OCO5)c2cc1OC)C(=O)OC3", "note": "[Compound 17a]", "values": [{"measurement": "anti-HIV activity in terms of SI values", "setting": "HIV", "value": "much more improved anti-HIV activity"}, {"measurement": "EC50", "setting": "HIV", "value": 72, "unit": "nM"}, {"measurement": "IC50", "setting": "SF162", "value": 122, "unit": "nM"}, {"measurement": "IC50", "setting": "89.6", "value": 134, "unit": "nM"}, {"measurement": "IC50", "setting": "Bal", "value": 168, "unit": "nM"}, {"measurement": "IC50", "setting": "Lav.04", "value": 151, "unit": "nM"}, {"measurement": "IC50", "setting": "1617-1", "value": 174, "unit": "nM"}, {"measurement": "IC50", "setting": "N119", "value": 203, "unit": "nM"}, {"measurement": "CC50", "setting": "[1]", "value": "> 100000", "unit": "nM"}, {"measurement": "CC50", "setting": "in vitro; CC50 (nM)", "value": 45200, "unit": "nM"}, {"measurement": "excised organs at the end of the experiment", "setting": "[2]", "value": "appeared as normal"}, {"measurement": "toxic symptoms (weight loss, skin damage, food and water intake impairment and postual abnormality) and mortality", "setting": "[2]", "value": "no toxic symptoms"}]}
{"smiles": "COc1cc2c(B3OC(C)(C)C(C)(C)O3)c3c(c(-c4ccc5c(c4)OCO5)c2cc1OC)C(=O)OC3", "note": "[Compound 19a]", "values": [{"measurement": "anti-HIV activity in terms of SI values", "setting": "HIV", "value": "much more improved anti-HIV activity"}, {"measurement": "EC50", "setting": "HIV", "value": 77.2, "unit": "nM"}, {"measurement": "IC50", "setting": "SF162", "value": 154, "unit": "nM"}, {"measurement": "IC50", "setting": "89.6", "value": 143, "unit": "nM"}, {"measurement": "IC50", "setting": "Bal", "value": 188, "unit": "nM"}, {"measurement": "IC50", "setting": "Lav.04", "value": 138, "unit": "nM"}, {"measurement": "IC50", "setting": "1617-1", "value": 152, "unit": "nM"}, {"measurement": "IC50", "setting": "N119", "value": 185, "unit": "nM"}, {"measurement": "CC50", "setting": "[1]", "value": "> 100000", "unit": "nM"}, {"measurement": "CC50", "setting": "in vitro; CC50 (nM)", "value": 10500, "unit": "nM"}]}
{"smiles": "C#Cc1c2c(c(-c3ccc4c(c3)OCO4)c3cc(OC)c(OC)cc13)C(=O)OC2", "note": "[Compound 21]", "values": [{"measurement": "EC50", "setting": "HIV", "value": 17.8, "unit": "nM"}, {"measurement": "IC50", "setting": "SF162", "value": 23.9, "unit": "nM"}, {"measurement": "IC50", "setting": "89.6", "value": 28.7, "unit": "nM"}, {"measurement": "IC50", "setting": "Bal", "value": 26.5, "unit": "nM"}, {"measurement": "IC50", "setting": "Lav.04", "value": 30.1, "unit": "nM"}, {"measurement": "IC50", "setting": "1617-1", "value": 39.3, "unit": "nM"}, {"measurement": "IC50", "setting": "N119", "value": 42.1, "unit": "nM"}, {"measurement": "CC50", "setting": "[1]", "value": 25600, "unit": "nM"}, {"measurement": "CC50", "setting": "in vitro; CC50 (nM)", "value": 207, "unit": "nM"}]}
{"smiles": "COc1cc2c(OC3OC[C@@H](OC(C)=O)[C@H](OC(C)=O)[C@H]3OC(C)=O)c3c(c(-c4ccc5c(c4)OCO5)c2cc1OC)C(=O)OC3", "note": "(stereo partly drawn) [Compound 25a, Peracetylated 7β-D-xylosyloxydiphyllin]", "values": [{"measurement": "anti-HIV activity in terms of SI values", "setting": "HIV", "value": "much more improved anti-HIV activity"}, {"measurement": "EC50", "setting": "HIV", "value": 7, "unit": "nM"}, {"measurement": "CC50", "setting": "in vitro; CC50 (nM)", "value": 3080, "unit": "nM"}, {"measurement": "excised organs at the end of the experiment", "setting": "[2]", "value": "appeared as normal"}, {"measurement": "toxic symptoms (weight loss, skin damage, food and water intake impairment and postual abnormality) and mortality", "setting": "[2]", "value": "no toxic symptoms"}]}
{"smiles": "COc1cc2c(OC3O[C@H](C)[C@@H](O)[C@H](O)[C@H]3O)c3c(c(-c4ccc5c(c4)OCO5)c2cc1OC)C(=O)OC3", "note": "(stereo partly shown) [Compound 26b, Patentiflorin A]", "values": [{"measurement": "EC50", "setting": "HIV", "value": 21.1, "unit": "nM"}, {"measurement": "EC50", "setting": "H5N1 virus", "value": 4.48, "unit": "nM"}, {"measurement": "EC50", "setting": "EBOV (Ebola virus)", "value": 54.8, "unit": "nM"}, {"measurement": "EC50", "setting": "[3]", "value": 42.5, "unit": "nM"}, {"measurement": "EC50", "setting": "SARS-CoV-2", "value": 67.2, "unit": "nM"}, {"measurement": "CC50", "setting": "in vitro; CC50 (nM)", "value": 347, "unit": "nM"}, {"measurement": "CC50", "setting": "in vitro; CC50 against the host cell line A549", "value": 386, "unit": "nM"}]}
